The values below are quoted from earlier work in patent US20210052557A1, “COMPOSITIONS FOR TREATING INFECTIVE ARTERIAL DISEASES AND RELATED CONDITIONS” (CENTRE FOR DIGESTIVE DISEASES, priority 2018, published 2021).

In series [1] the test system is Chlamydophila pneumoniae (Cpn). Conditions: single antibiotic given to patients.
The subject of series [2] is Chlamydophila pneumoniae (Cpn).

As for `CC[C@H]1OC(=O)[C@H](C)[C@@H](O[C@H]2C[C@@](C)(OC)[C@@H](O)[C@H](C)O2)[C@H](C)[C@@H](O[C@@H]2O[C@H](C)C[C@H](N(C)C)[C@H]2O)[C@](C)(O)C[C@@H](C)/C(=N\OCOCCOC)[C@H](C)[C@@H](O)[C@]1(C)O` [roxithromycin], in series [1], the “clinical benefit as monotherapy” value is listed as “Benefit”.

For the compound `CN(C)c1cc(NC(=O)CNC(C)(C)C)c(O)c2c1C[C@H]1C[C@H]3[C@H](N(C)C)C(O)=C(C(N)=O)C(=O)[C@@]3(O)C(O)=C1C2=O` [Tigecycline], the “activity against Chlamydophila pneumoniae (Cpn)” value in series [2] is “good activity”.

Consider `CC[C@H]1OC(=O)[C@H](C)C(=O)[C@H](C)[C@@H](O[C@@H]2O[C@H](C)C[C@H](N(C)C)[C@H]2O)[C@](C)(OC/C=C/c2cnc3ccccc3c2)C[C@@H](C)C(=O)[C@H](C)[C@H]2NC(=O)O[C@@]21C` [cethromycin], for which the “activity against Chlamydophila pneumoniae (Cpn)” value in series [2] was “most active of the macrolides”.

For `CC[C@H]1OC(=O)[C@H](C)[C@@H](O[C@H]2C[C@@](C)(OC)[C@@H](O)[C@H](C)O2)[C@H](C)[C@@H](O[C@@H]2O[C@H](C)C[C@H](N(C)C)[C@H]2O)[C@](C)(O)C[C@@H](C)CN(C)[C@H](C)[C@@H](O)[C@]1(C)O` [Azithromycin], in series [1], the “clinical benefit as monotherapy” value is given as “some benefit, but this was not sustained”.
